Measured values as given in US8598342B2, “Methods and compounds for antimicrobial intervention” (President and Fellows of Harvard College, priority 2008, dated 2013).
“Also recorded” adds a separate entry of the source.

How the values were obtained:
Assay type in all cases: cell-based, Staphylococcus aureus
[1] = test system: WTA biosynthesis in S. aureus RN4220; assay: PAGE analysis of WTAs isolated from S. aureus RN4220 grown with tunicamycin; details: increasing but sub-lethal concentrations of tunicamycin
S. aureus RN4220 = assay: Phage infection (PFUs) of S. aureus grown with tunicamycin; details: increasing tunicamycin
S. aureus [2] = assay: Two dimensional drug interaction analysis between tunicamycin and targocil; details: normally inhibitory concentrations of targocil; 18 h at 30° C.
Method: (A) Targocil MIC data for a panel of Gram-positive strains, including MRSA clinical isolates B5271 and 5340A. Growth was monitored in triplicate after 12 h at 28° C. using optical density. (B) Two dimensional drug interaction analysis between tunicamycin and targocil grown for 18 h at 30° C. […] At higher concentrations, tunicamycin is toxic because it inhibits cell wall biosynthesis. […] Varying concentrations of drug were added to […] of S. aureus RN4220 after 5 h and cell count was monitored over time at 30° C. […] Cells were grown at 28° C. for 12 h and monitored for growth using optical density (OD600). Data were normalized to the DMSO controls for each strain. (E) Two classes of mutants were examined: phage resistant (m1 3) and phage sensitive (m4-5).
Having discovered targocil, the next challenge was to identify its target in S. aureus. We first used the natural product tunicamycin to verify that targocil requires the presence of a functional WTA pathway. Although toxic at high concentrations, tunicamycin is a selective TarO inhibitor that abolishes WTA expression at sublethal concentrations. (Hancock I C, Wiseman G, & Baddiley J (1976) Febs Letters 69:75-80) We predicted that tunicamycin should antagonize targocil by preventing flux into the WTA biosynthetic pathway. […]

S. aureus [3] = assay: SAR of targocil analogs: MIC and mutation frequency
Source text: Based on the discovery of targocil as an inhibitor of WTA biosynthesis, further studies of the antibiotic were undertaken to elucidate the basis of its activity and to discover other antibiotics based on the structure of targocil. The goal for the initial SAR of targocil was to alter only the A ring to determine modifications that would improved potency as measured by MIC. We developed synthetic chemistry schemes to modify the targocil scaffold and, initially, nineteen different derivatives of targocil were made. […] Modifications to the D ring appear particularly promising. Finally, the optimized compounds from this second round of SAR could then be used to discover modifications to the amine group that could be tolerated.

Compound	WTA biosynthesis (PAGE of isolated WTAs) [1]	phage infection (PFUs) (S. aureus RN4220)	antagonism of targocil by tunicamycin (S. aureus [2])	mutation frequency, relative to targocil (S. aureus [3]; in vitro)	potency as measured by MIC, relative to targocil (S. aureus [3]; two methoxy groups at R1 and R2 of ring A)
tunicamycin	dose-dependent decrease	dose-dependent decrease	complete protection; also recorded: antagonizes the lethal effect of targocil	–	–
CCN(CC)c1nc2c(S(=O)(=O)c3ccccc3)nnn2c2cc(OC)c(OC)cc12 [Compound 4-22-7, N,N-Diethyl-7,8-dimethoxy-3-(phenylsulfonyl)-[1,2,3]triazolo[1,5-a]quinazolin-5-amine]	–	–	–	better	more potent
